Laboratory results as given in patent publication US11058678B2 (Enanta Pharmaceuticals, Inc., priority 2018, dated 2021).

What was measured:
HBV (2.2.15 cells) = experiment: Antiviral activity in 2.2.15 cells: reduction of viral product accumulation (qPCR of lysates, HBsAg or HBeAg ELISA); assay type: cell-based, hepatitis B virus (HBV); settings: Hepatitis B virus, 120 h, day 5 post treatment, 50% reduction of viral product accumulation in lysates or supernatants vs no drug controls, readout (qPCR, HBsAg, HBeAg) not specified
In short: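 HBV-producing 2.2.15 cells, 35,000/well, treated with 5-fold serial compound dilutions at 0.5% final DMSO for 5 days. Lysate HBV DNA by qPCR or supernatant HBsAg/HBeAg by ELISA; EC50 is 50% reduction versus no-drug control, binned A<0.1 μM, B 0.1-1 μM, C>1 μM.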

[1] = Compound induced cellular toxicity in HepG2 cells (ATPlite 1 Step); assay type: cell-based; settings: human, three days, 50% reduction of total ATP levels vs no drug controls
Method: At day 3, post seeding cells are treated with ATPlite 1 Step according to the manufacturer's instructions.

| SMILES | EC50 (HBV (2.2.15 cells)) [µM] | CC50 at 3 days [1] [µM] |
| --- | --- | --- |
| COCCCOc1cc2c(cc1-n1cccn1)-c1cc(=O)c(C(=O)O)cn1[C@H](C(C)(C)C)C2 [Example 28, (S)-6-(tert-butyl)-9-(3-methoxypropoxy)-2-oxo-10-(1H-pyrazol-1-yl)-6,7-dihydro-2H-pyrido[2,1-a]isoquinoline-3-carboxylic Acid] | 0.1 to 1 | > 25 |
| COCCCOc1cc2c(cc1-c1cnc3ccccc3c1)-c1cc(=O)c(C(=O)O)cn1[C@H](C(C)(C)C)C2 [Example 12, (S)-6-(tert-butyl)-9-(3-methoxypropoxy)-2-oxo-10-(quinolin-3-yl)-6,7-dihydro-2H-pyrido[2,1-a]isoquinoline-3-carboxylic Acid] | < 0.1 | > 25 |
| CC(C)(C)[C@@H]1Cc2c(cc(-c3cccs3)c3c2CCO3)-c2cc(=O)c(C(=O)O)cn21 [Example 86, (S)-5-(tert-butyl)-9-oxo-12-(thiophen-2-yl)-2,3,4,9-tetrahydro-5H-furo[3,2-f]pyrido[2,1-a]isoquinoline-8-carboxylic Acid] | < 0.1 | < 10 |
| COCCCOc1cc2c(cc1-c1cccs1)-c1cc(=O)c(C(=O)O)cn1[C@H](C(C)(C)C)C2 [Example 8, (S)-6-(tert-butyl)-9-(3-methoxypropoxy)-2-oxo-10-(thiophen-2-yl)-6,7-dihydro-2H-pyrido[2,1-a]isoquinoline-3-carboxylic Acid] | < 0.1 | 10 to 25 |
| COCCCOc1cc2c(cc1-c1cnco1)-c1cc(=O)c(C(=O)O)cn1[C@H]1[C@@H]2CCC1(C)C [Example 63, (3aS,12bR)-11-(3-methoxypropoxy)-3,3-dimethyl-10-(oxazol-5-yl)-7-oxo-1,2,3,3a,7,12b-hexahydrocyclopenta[c]pyrido[2,1-a]isoquinoline-6-carboxylic Acid] | < 0.1 | 10 to 25 |
| COCCCOc1cc2c(cc1-c1ccoc1)-c1cc(=O)c(C(=O)O)cn1[C@H]1[C@@H]2CCC1(C)C [Example 60, (3aS,12bR)-10-(furan-3-yl)-11-(3-methoxypropoxy)-3,3-dimethyl-7-oxo-1,2,3,3a,7,12b-hexahydrocyclopenta[c]pyrido[2,1-a]isoquinoline-6-carboxylic Acid] | < 0.1 | 10 to 25 |
| CC(C)(C)[C@@H]1Cc2c(cc(-c3ccoc3)c3c2CCO3)-c2cc(=O)c(C(=O)O)cn21 [Example 64, (S)-5-(tert-butyl)-12-(furan-3-yl)-9-oxo-2,3,4,9-tetrahydro-5H-furo[3,2-f]pyrido[2,1-a]isoquinoline-8-carboxylic Acid] | < 0.1 | < 10 |
| COCCCOc1cc2c(cc1-c1ccnn1C)-c1cc(=O)c(C(=O)O)cn1[C@H](C(C)(C)C)C2 [Example 18, (S)-6-(tert-butyl)-9-(3-methoxypropoxy)-10-(1-methyl-1H-pyrazol-5-yl)-2-oxo-6,7-dihydro-2H-pyrido[2,1-a]isoquinoline-3-carboxylic Acid] | < 0.1 | > 25 |
| COCCCOc1cc2c(cc1-c1ccc(F)cc1F)-c1cc(=O)c(C(=O)O)cn1[C@H](C(C)(C)C)C2 [Example 22, (S)-6-(tert-butyl)-10-(2,4-difluorophenyl)-9-(3-methoxypropoxy)-2-oxo-6,7-dihydro-2H-pyrido[2,1-a]isoquinoline-3-carboxylic Acid] | 0.1 to 1 | > 25 |
| COCCCOc1cc2c(cc1-c1ccc(OC)cc1)-c1cc(=O)c(C(=O)O)cn1[C@H](C(C)(C)C)C2 [Example 17, (S)-6-(tert-butyl)-10-(4-methoxyphenyl)-9-(3-methoxypropoxy)-2-oxo-6,7-dihydro-2H-pyrido[2,1-a]isoquinoline-3-carboxylic Acid] | < 0.1 | 10 to 25 |
| COCCCOc1cc2c(cc1-c1ccsc1)-c1cc(=O)c(C(=O)O)cn1[C@H](C(C)(C)C)C2 [Example 5, (S)-6-(tert-butyl)-9-(3-methoxypropoxy)-2-oxo-10-(thiophen-3-yl)-6,7-dihydro-2H-pyrido[2,1-a]isoquinoline-3-carboxylic Acid] | < 0.1 | > 25 |
| CC(C)(C)[C@@H]1Cc2c(cc(N3CC(F)(F)C3)c3c2CCO3)-c2cc(=O)c(C(=O)O)cn21 [Example 30, (S)-5-(tert-butyl)-12-(3,3-difluoroazetidin-1-yl)-9-oxo-2,3,4,9-tetrahydro-5H-furo[3,2-f]pyrido[2,1-a]isoquinoline-8-carboxylic Acid] | < 0.1 | > 25 |
| CC(C)(C)[C@@H]1Cc2c(cc(-c3cccc(F)c3)c3c2CCO3)-c2cc(=O)c(C(=O)O)cn21 [Example 65, (S)-5-(tert-butyl)-12-(3-fluorophenyl)-9-oxo-2,3,4,9-tetrahydro-5H-furo[3,2-f]pyrido[2,1-a]isoquinoline-8-carboxylic Acid] | < 0.1 | < 10 |
| COCCCOc1cc2c(cc1-c1cnn(C)c1)-c1cc(=O)c(C(=O)O)cn1[C@H](C(C)(C)C)C2 [Example 4, (S)-6-(tert-butyl)-9-(3-methoxypropoxy)-10-(1-methyl-1H-pyrazol-4-yl)-2-oxo-6,7-dihydro-2H-pyrido[2,1-a]isoquinoline-3-carboxylic Acid] | < 0.1 | > 25 |
| COCCCOc1cc2c(cc1-c1ccc(F)cc1)-c1cc(=O)c(C(=O)O)cn1[C@H]1[C@@H]2CCC1(C)C [Example 59] | < 0.1 | 10 to 25 |
| COCCCOc1cc2c(cc1-c1ccccc1F)-c1cc(=O)c(C(=O)O)cn1[C@H](C(C)(C)C)C2 [Example 13, (S)-6-(tert-butyl)-10-(2-fluorophenyl)-9-(3-methoxypropoxy)-2-oxo-6,7-dihydro-2H-pyrido[2,1-a]isoquinoline-3-carboxylic Acid] | < 0.1 | 10 to 25 |
| COCCCOc1cc2c(cc1-c1c(C)oc3ccccc13)-c1cc(=O)c(C(=O)O)cn1[C@H](C(C)(C)C)C2 [Example 21, (S)-6-(tert-butyl)-9-(3-methoxypropoxy)-10-(2-methylbenzofuran-3-yl)-2-oxo-6,7-dihydro-2H-pyrido[2,1-a]isoquinoline-3-carboxylic Acid] | 0.1 to 1 | > 25 |
| COCCCOc1cc2c(cc1-c1cccc(F)c1F)-c1cc(=O)c(C(=O)O)cn1[C@H](C(C)(C)C)C2 [Example 23, (S)-6-(tert-butyl)-10-(2,3-difluorophenyl)-9-(3-methoxypropoxy)-2-oxo-6,7-dihydro-2H-pyrido[2,1-a]isoquinoline-3-carboxylic Acid] | 0.1 to 1 | > 25 |
| COCCCOc1cc2c(cc1-c1cnn(C)c1)-c1cc(=O)c(C(=O)O)cn1[C@H]1[C@@H]2COC1(C)C [Example 123, (3aS,12bR)-11-(3-methoxypropoxy)-3,3-dimethyl-10-(1-methyl-1H-pyrazol-4-yl)-7-oxo-3,3a,7,12b-tetrahydro-1H-furo[3,4-c]pyrido[2,1-a]isoquinoline-6-carboxylic Acid] | < 0.1 |  |
| COCCCOc1cc2c(cc1N1CCC(F)(F)C1)-c1cc(=O)c(C(=O)O)cn1[C@H](C(C)(C)C)C2 [Example 54, (S)-6-(tert-butyl)-10-(3,3-difluoropyrrolidin-1-yl)-9-(3-methoxypropoxy)-2-oxo-6,7-dihydro-2H-pyrido[2,1-a]isoquinoline-3-carboxylic Acid] | 0.1 to 1 |  |
| COc1cccc(-c2cc3c(c4c2OCC4)C[C@@H](C(C)C)n2cc(C(=O)O)c(=O)cc2-3)c1 [Example 92, (S)-5-isopropyl-12-(3-methoxyphenyl)-9-oxo-2,3,4,9-tetrahydro-5H-furo[3,2-f]pyrido[2,1-a]isoquinoline-8-carboxylic Acid] | < 0.1 |  |
| CC(C)[C@@H]1Cc2c(cc(-c3ccn(C)n3)c3c2CCO3)-c2cc(=O)c(C(=O)O)cn21 [Example 98, (S)-5-isopropyl-12-(1-methyl-1H-pyrazol-3-yl)-9-oxo-2,3,4,9-tetrahydro-5H-furo[3,2-f]pyrido[2,1-a]isoquinoline-8-carboxylic Acid] | > 1 |  |
| CC(C)[C@@H]1Cc2c(cc(-c3ccccc3)c3c2CCO3)-c2cc(=O)c(C(=O)O)cn21 [Example 93, (S)-5-isopropyl-9-oxo-12-phenyl-2,3,4,9-tetrahydro-5H-furo[3,2-f]pyrido[2,1-a]isoquinoline-8-carboxylic Acid] | < 0.1 |  |
| Cn1nccc1-c1cc2c(c3c1OCC3)C[C@@H](C(C)(C)C)n1cc(C(=O)O)c(=O)cc1-2 [Example 68, (S)-5-(tert-butyl)-12-(1-methyl-1H-pyrazol-5-yl)-9-oxo-2,3,4,9-tetrahydro-5H-furo[3,2-f]pyrido[2,1-a]isoquinoline-8-carboxylic Acid] | < 0.1 |  |
| CC(C)[C@@H]1Cc2c(cc(-c3ccn[nH]3)c3c2CCO3)-c2cc(=O)c(C(=O)O)cn21 [Example 106, (S)-5-isopropyl-9-oxo-12-(1H-pyrazol-5-yl)-2,3,4,9-tetrahydro-5H-furo[3,2-f]pyrido[2,1-a]isoquinoline-8-carboxylic Acid] | < 0.1 |  |
| CC(C)[C@@H]1Cc2c(cc(-c3ccnn3C)c3c2CCO3)-c2cc(=O)c(C(=O)O)cn21 [Example 96, (S)-5-isopropyl-12-(1-methyl-1H-pyrazol-5-yl)-9-oxo-2,3,4,9-tetrahydro-5H-furo[3,2-f]pyrido[2,1-a]isoquinoline-8-carboxylic Acid] | < 0.1 |  |
| CC(C)(C)[C@@H]1Cc2c(cc(C3CCOC3)c3c2CCO3)-c2cc(=O)c(C(=O)O)cn21 (stereo partly drawn) [Example 130, (5S)-5-(tert-butyl)-9-oxo-12-(tetrahydrofuran-3-yl)-2,3,4,9-tetrahydro-5H-furo[3,2-f]pyrido[2,1-a]isoquinoline-8-carboxylic Acid] | < 0.1 |  |
